Measured values: patent publication US7732437B2, “Use of anti-histaminics for acute reduction of elevated intracranial pressure” (Janssen Pharmaceutica, NV., priority 2001, dated 2010)
Read-outs that look alike come from different tables or passages of the source. Marks after values point to notes of the source that are not given here.

How the values were obtained:
[1] = system: traumaticaly induced brain edema; conditions: prior treatment; cited from earlier work
histamine H2-receptor = target: T1, histamine H2-receptor (Cavia porcellus, UniProt P47747); assay: Radioligand binding, histamine H2-receptor, guinea pig striatum cells, [125I]APT; conditions: [125I]APT 0.1 nM, 150 min at 22° C., read-out: H2-antagonist activity (pIC50) (converted)
T1 construct: using guinea pig striatum cells and [^125I]APT as the radioligand; from tissue; host or cells: guinea pig striatum
T1 sequence (P47747 whole entry): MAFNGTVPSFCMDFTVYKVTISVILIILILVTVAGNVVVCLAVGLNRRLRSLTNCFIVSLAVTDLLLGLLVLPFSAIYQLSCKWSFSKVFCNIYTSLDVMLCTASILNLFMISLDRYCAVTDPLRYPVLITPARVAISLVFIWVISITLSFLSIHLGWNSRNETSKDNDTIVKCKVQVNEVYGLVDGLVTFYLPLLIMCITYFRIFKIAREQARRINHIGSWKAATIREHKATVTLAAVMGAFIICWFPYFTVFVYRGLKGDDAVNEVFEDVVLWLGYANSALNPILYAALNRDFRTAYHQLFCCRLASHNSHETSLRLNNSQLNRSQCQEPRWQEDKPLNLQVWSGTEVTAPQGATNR

[2] = system: Sprague-Dawley rats with closed head injury; conditions: for effect on the lowering of the blood pressure: rat, in vivo
Source text: (§1) A clinically relevant rat model for traumatic brain injury was used to test the compounds according to the invention and the commercially available compounds. […] Trauma was induced in intubated, isoflurane anesthetized (1.5% isoflurane in a mixture of 30% O2 and 70% N2O) Sprague-Dawley rats (380-400 g) stereotaxically positioned on a table mounted on 4 springs. A 400 g steel cylinder, protected with a 9 mm diameter silicon disc, was dropped on the unprotected skull from a height of either 70 cm or 50 cm (respectively ‘severe’ and ‘moderate’ head injury). The impact area was centered between bregma and lamda. ICP was recorded using a Codman microsensor probe inserted in the parietal cortex. […] The severe head injury mode was used for the evaluation of pharmacological effects immediately after trauma (screening procedure). […] In pharmacological studies, animals with a pathological ICP between 12.5 and 35 mm Hg were included. The changes in ICP, mean arterial blood pressure (MABP) and cerebral perfusion pressure CPP (=MABP—CPP) were expressed as percentage of the initial value at onset of the treatment.
(§2) On a weekly base, 4 treated groups of 3 rats were compared with 3 saline treated animals. Since conventional statistical methods require a larger amount of animals, a sequential procedure was used. Sequential methods operate in different stages. At each stage, a group of animals was selected as homogeneous as possible. Animals were randomly allocated to either drugs or saline. […] Given the biological relevant level of activity that must be detected, the expected fraction of false positive and negative results was known and fixed. A sequential two-sample grouped rank test was used.
(§3) Treatment was started at 20 min after severe head injury and involved administering a dose of 0.5 mg/kg/min during 10 minutes, followed by 0.1 mg/kg/min during 50 min.
(§4) Ranitidine was infused for 6 min at a dose of 2 mg/kg/min in the rat CHI-model after inflicting severe head injury. Solvent (NaCl+H2T) was given at the same rate. In each group, 6 rats were treated. […] The percentage of reduction are calculated as % change of the ICP recorded at the onset of the treatment and at the end of the infusion.
(§5) A number of commercially available H1- and H2-antagonists was infused for 10 min at a dose of 0.5 mg/kg/min in the rat CHI-model after inflicting severe head injury. Solvent (NaCl+H2T) was given at the same rate. In each group, 6 rats were treated.

[3] = system: Sprague-Dawley rats with closed head injury; assay: Closed Head Injury (CHI) model, severe head injury; conditions: for CPP (%), average change over treatment period, median (95% C.I.) / ETCO2 (%), average change over treatment period, median (95% C.I.) / ICP (%), average change over treatment period, % change of initial value, median (95% C.I.) / MABP (%), average change over treatment period, median (95% C.I.) / Resp. rate(%), average change over treatment period, median (95% C.I.) / Heart rate(%), average change over treatment period, median (95% C.I.): 0.5 mg/kg/min 10 min, then 0.1 mg/kg/min 50 min, start 20 min after severe CHI, n = 10; for Effect on ICP: 0.5 mg/kg/min for 10 min, first 15 minutes, 6 rats
Source text: as §1, §2, §3, §4, §5

non-traumatised rats = assay: ICP and blood pressure in non-traumatized rats; type: in vivo, rat; conditions: for effect on ICP, MABP and CPP in non-traumatised rats: i.v. 0.5 mg/kg/min 10 minutes, then 0.1 mg/kg/min 50 min, anaesthetised; for effects of H2-agonists (ICP, blood pressure): dimaprit 0.5 mg/kg/min for 10 minutes, impromidine increasing doses up to 3.75 mg/kg/hour; for effects of H2-agonists on blood pressure and ICP, high dose: dimaprit 2 mg/kg/min for 10 minutes, impromidine bolus of 0.5 mg/kg
Protocol: For comparison, two commercially available H2-agonists (dimaprit and impromidine) were also tested by infusion into non-traumatized rats, using a dose of 0.5 mg/kg/min for 10 minutes for dimaprit and increasing doses up to 3.75 mg/kg/hour for impromidine.
Rats The effect of Compound 2, Compound 1 and Racemate (comp. 1 and comp. 2) on ICP, MABP and CPP was tested in anaesthetised non-traumatised rats. […] Conclusion

[4] = system: Sprague-Dawley rats with closed head injury; assay: Closed Head Injury (CHI) model, moderate head injury, treatment 24 h after trauma; type: in vivo, rat; conditions: for effect on saturation of brain haemoglobin with oxygen HbSat (NIRS) / effect on the redox state of CytOx (NIRS) / effect on total brain haemoglobin concentration [HbTot] (NIRS): i.v. 0.5 mg/kg.min 10 min, then 0.1 mg/kg.min 45 min, 24 h after moderate head injury
Source text: The impact area was centered between bregma and lamda.
Near-infrared spectroscopy (NIRS) of the rat brain ‘in vivo’ allows to quantify non-invasively saturation of brain haemoglobin with oxygen (HbSat) and total brain haemoglobin concentration ([HbTot]). The latter is a measure for cerebral blood volume (CBV). Changes in the redox state of the mitochondrial enzyme cytochrome oxidase (CytOx), an indicator for tissue oxygenation, can also be monitored.
HbSat is not affected by compound 1 and the racemate (Comp. 1 and Comp. 2).
The effects of treatment with Compound 2 (i.v. infusion at a dose of 0.1 mg/kg.min during 30 min) at 24 h after moderate trauma were studied using different anesthetics (isoflurane, chloralhydrate, pentobarbital). When chloralhydrate (400 mg/kg i.p) is used as anesthetic, ICP decreases to 75% of initial value and MABP gradually increases to 110% of initial value (medians, n=6). […] Barbiturates also reduce the ICP and an important additional effect can be obtained with the compound.

[5] = target: T2, human histamine H1-receptor (Homo sapiens, UniProt P35367); assay: Radioligand binding, histamine H1-receptor, competitive inhibition of [3H]Pyrilamine; conditions: CHO-cells transfected with the human histamine H1-receptor, read-out: H1-antagonist activity (pIC50) (converted)
T2 construct: expressed in transfected cells; host or cells: CHO cells
T2 sequence (P35367 whole entry): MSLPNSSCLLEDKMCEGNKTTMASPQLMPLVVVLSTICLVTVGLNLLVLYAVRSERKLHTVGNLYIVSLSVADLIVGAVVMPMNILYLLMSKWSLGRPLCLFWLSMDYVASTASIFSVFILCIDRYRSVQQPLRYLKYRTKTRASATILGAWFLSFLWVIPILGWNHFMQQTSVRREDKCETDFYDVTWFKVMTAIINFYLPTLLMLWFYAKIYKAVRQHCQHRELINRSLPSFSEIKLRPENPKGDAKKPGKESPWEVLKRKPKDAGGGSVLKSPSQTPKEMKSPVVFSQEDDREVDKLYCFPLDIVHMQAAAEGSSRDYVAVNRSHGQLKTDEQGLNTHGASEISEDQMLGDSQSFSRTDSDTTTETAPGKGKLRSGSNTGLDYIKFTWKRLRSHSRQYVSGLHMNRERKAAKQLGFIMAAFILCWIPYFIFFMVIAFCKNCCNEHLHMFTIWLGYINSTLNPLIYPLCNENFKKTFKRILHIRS
Protocol: Competitive inhibition of [^3H] […] Incubation was done during 150 min at 22° C.

[6] = system: rabbits with cortical cold lesion; assay: Cold lesion-induced rise of ICP in rabbits; type: in vivo, rabbit; conditions: 2 mg/kg/min for 10 min, one day after cryo-lesion
Protocol: Cryo-lesions were induced in adult rabbits to obtain a pathological ICP that is caused by tissue oedema. A 8 mm stainless steel rod was placed at predetermined coordinates on the exposed skull of deeply anaesthetised rabbits and cooled for 10 min with liquid nitrogen. One day later the animals were re-anaesthetised and ICP and blood pressure continuously recorded as described for the rat. After a stabilisation period of 15 min, Compound 1 was infused for 10 min at a dose of 2 mg/kg/min. Solvent (preclinical formulation containing 10% HP-β-CD, pH 4) was given for 10 min at a rate of 2 ml/min.

[7] = continuous infusion of 0.1 mg/kg.min
[8] = i.v. 0.1 mg/kg.min 30 min, chloralhydrate 400 mg/kg i.p. anesthesia, n=6
[9] = i.v. 0.1 mg/kg.min 30 min, pentobarbital 60 mg/kg i.p. anesthesia, n=6
[10] = i.v. 1 mg/kg/min during 10 min, repeated, start 20 min after severe head injury

SMILES: CN/C(=N/CCSCc1nc[nH]c1C)NC#N [Cimetidine, cimetidine]
- increased brain water content and elevated plasma and brain histamine levels [1]: prevented

SMILES: CNC(=C[N+](=O)[O-])NCCSCc1ccc(CN(C)C)o1 [Ranitidine, ranitidine, reference compound]
- IC50 (histamine H2-receptor): 3160 nM

SMILES: COc1ccc(CN(CCN(C)C)c2ccccn2)cc1 [Pyrilamine]
- effect on the lowering of the blood pressure [2]: no or little effect
- increased brain water content and elevated plasma and brain histamine levels [1]: failed to reduce the increased brain water content

SMILES: CN(C)CCOC(c1ccccc1)c1ccccc1 [Diphenhydramine, diphenhydramine, reference compound]
- reduction in ICP ([3]; 1 mg/kg/min for 10 min, severe head injury, three rats): 34%
- effect on the lowering of the blood pressure [2]: no or little effect

SMILES: Cc1nc2n(C)c3ccccc3n2c(=O)c1CCN1CCC(C2c3ccccc3CCn3c2nc2ccccc23)CC1Cc1ccccc1 (racemic) [Racemate (comp. 1 and comp. 2), pyrimido[1,2-a]benzimidazol-4(10H)-one, 3-[2-[4-(11 ,12-dihydro-6H-benzimidazo[2,1-b][3]benzazepin-6-yl)-2-(phenylmethyl)-1-piperidinyl]ethyl]-2,10-dimethyl (E)-2-butenedioate (2:3) hydrate (1:1)]
- CPP (%), average change over treatment period, median (95% C.I.) [3]: 7.5 (−2.4; 15.5) %
- ETCO2 (%), average change over treatment period, median (95% C.I.) [3]: 2.4 (−7.8; 3.8) %
- ICP (%), average change over treatment period, % change of initial value, median (95% C.I.) [3]: −19.1 (−24.9; −10.8)* %
- MABP (%), average change over treatment period, median (95% C.I.) [3]: 0.6 (−5.1; 8.5) %
- Resp. rate(%), average change over treatment period, median (95% C.I.) [3]: 9.6 (3.0; 14.8) %
- effect on ICP, MABP and CPP in non-traumatised rats (non-traumatised rats): comparable with those obtained in the traumatized animals
- effect on saturation of brain haemoglobin with oxygen HbSat (NIRS) [4]: not affected
- effect on the redox state of CytOx (NIRS) [4]: do not have an effect
- effect on total brain haemoglobin concentration [HbTot] (NIRS) [4]: do not have a significant effect

SMILES: Cc1nc2n(C)c3ccccc3n2c(=O)c1CCN1CCC(C2c3ccccc3CCn3c2nc2ccccc23)CC1Cc1ccccc1 (single isomer, unassigned) [Compound 2, pyrimido[1,2-a]benzimidazol-4(10H)-one, 3-[2-[4-(11 ,12-dihydro-6H-benzimidazo[2,1-b][3]benzazepin-6-yl)-2-(phenylmethyl)-1-piperidinyl]ethyl]-2,10-dimethyl (E)-2-butenedioate (2:3) hydrate (1:1)]
- CPP (%), average change over treatment period, median (95% C.I.) [3]: 24.2 (0.9; 43.6)* %
- ETCO2 (%), average change over treatment period, median (95% C.I.) [3]: −4.4 (−8.9; 2.3)* %
- Heart rate(%), average change over treatment period, median (95% C.I.) [3]: −9.6 (−21.8; 0.7) %
- ICP (%), average change over treatment period, % change of initial value, median (95% C.I.) [3]: −15.3 (−20.0; −9.5)* %
- MABP (%), average change over treatment period, median (95% C.I.) [3]: 18.8 (−2.0; 31.0)* %
- Resp. rate(%), average change over treatment period, median (95% C.I.) [3]: 6.6 (−1.3; 14.6) %
- increases in MABP observed [3, 7]: ≤ 20%
- maximal reduction of ICP versus infusion preceded by loading dose [3, 7]: comparable
- time required to obtain maximal reduction of ICP (median) [3, 7]: 30 min
- median MABP increase at the end of the infusion ([3]; continuous infusion of 0.1 mg/kg.min, n=6): 9%
- IC50 [5]: 794 nM
- effect on ICP, MABP and CPP in non-traumatised rats (non-traumatised rats): comparable with those obtained in the traumatized animals
- ICP, % of initial value (median) [4, 8]: 75 % of initial value
- MABP, % of initial value (median) [4, 8]: 110 % of initial value
- ICP, % of initial value (median) [4, 9]: 64 % of initial value
- MABP, % of initial value at the end of the infusion (median) [4, 9]: 141 % of initial value
- effect on saturation of brain haemoglobin with oxygen HbSat (NIRS) [4]: small but statistically significant reduction
- effect on the redox state of CytOx (NIRS) [4]: do not have an effect
- effect on total brain haemoglobin concentration [HbTot] (NIRS) [4]: do not have a significant effect

SMILES: Cc1nc2n(C)c3ccccc3n2c(=O)c1CCN1CCC(C2c3ccccc3CCn3c2nc2ccccc23)CC1Cc1ccccc1 (single isomer, unassigned) [Compound 1, pyrimido[1,2-a]benzimidazol-4(10H)-one, 3-[2-[4-(11 ,12-dihydro-6H-benzimidazo[2,1-b][3]benzazepin-6-yl)-2-(phenylmethyl)-1-piperidinyl]ethyl]-2,10-dimethyl (E)-2-butenedioate (2:3) hydrate (1:1)]
- CPP (%), average change over treatment period, median (95% C.I.) [3]: −1.9 (−8.9; 0.4) %
- ETCO2 (%), average change over treatment period, median (95% C.I.) [3]: 2.2 (−0.8; 8.4) %
- Heart rate(%), average change over treatment period, median (95% C.I.) [3]: −4.1 (−11.4; 1.9) %
- ICP (%), average change over treatment period, % change of initial value, median (95% C.I.) [3]: −15.4 (−22.6; −11.5)* %
- MABP (%), average change over treatment period, median (95% C.I.) [3]: −3.6 (−11.9; −1.5) %
- Resp. rate(%), average change over treatment period, median (95% C.I.) [3]: 5.3 (−3.3; 13.6) %
- effect on ICP during 10 min infusion (dose response) ([3]; 0.125, 0.25, 0.5, 1 and 2 mg/kg/min for 10 min): sustained dose-dependent decrease of ICP
- effect on ICP in the 10 min period following the infusion ([3]; 0.125-2 mg/kg/min for 10 min): highly significant dose-dependent effect on ICP remains present
- dose yielding a statistically significant larger reduction in ICP than solvent ([3]; 10 min infusion): ≥ 1 mg/kg/min
- effect of repeated infusion on ICP [3, 10]: rapid reduction of ICP
- effect of repeated infusion on blood pressure [3, 10]: Blood pressure drops during Compound 1 treatment but is restored again after this episode
- ICP after termination of infusion [6]: significant ICP reduction
- ICP during infusion [6]: no immediate decrease in ICP
- blood pressure during infusion [6]: blood pressure drops
- IC50 [5]: 200 nM
- IC50 (histamine H2-receptor): 1000 nM
- effect on ICP, MABP and CPP in non-traumatised rats (non-traumatised rats): comparable with those obtained in the traumatized animals
- effect on saturation of brain haemoglobin with oxygen HbSat (NIRS) [4]: not affected
- effect on the redox state of CytOx (NIRS) [4]: do not have an effect
- effect on total brain haemoglobin concentration [HbTot] (NIRS) [4]: do not have a significant effect

SMILES: CN(C)CCC(c1ccc(Cl)cc1)c1ccccn1 (centres unmarked) [Chlorpheniramine, reference compound]
- Effect on ICP ([3]; severe head injury): −
- effect on the lowering of the blood pressure [2]: no or little effect

SMILES: CC(CN1c2ccccc2Sc2ccccc21)N(C)C (centres unmarked) [Promethazine, reference compound]
- Effect on ICP ([3]; severe head injury): −
- effect on the lowering of the blood pressure [2]: no or little effect

SMILES: OCCOCCN1CCN(C(c2ccccc2)c2ccc(Cl)cc2)CC1 (centres unmarked) [Hydroxyzine]
- Effect on ICP ([2]; iv, 0.5 mg/kg, 0.25 h): −

SMILES: Cc1nc[nH]c1CSCCN=C(N)NCCCc1cnc[nH]1 [impromidine]
- effects of H2-agonists (ICP, blood pressure) (non-traumatised rats): No effects were observed
- effects of H2-agonists on blood pressure and ICP, high dose (non-traumatised rats): blood pressure and ICP were observed to drop, but recovered after the treatment

SMILES: c1cc(CN2CCCCC2)cc(OCCCNc2nc3ccccc3s2)c1 [Zolantidine, reference compound]
- Effect on ICP ([3]; severe head injury): −
- effect on the lowering of the blood pressure [2]: no or little effect

SMILES: CN(C)CCCSC(=N)N [dimaprit]
- effects of H2-agonists (ICP, blood pressure) (non-traumatised rats): No effects were observed
- effects of H2-agonists on blood pressure and ICP, high dose (non-traumatised rats): blood pressure and ICP were observed to drop, but recovered after the treatment
